Laboratory results taken from patent US11141413B2, “Method of treating renal cell carcinoma using N-(4-(6,7-dimethoxyquinolin-4-yloxy)phenyl)-N′-(4-fluorophenyl)cyclopropane-1,1-dicarboxamide, (2S)-hydroxybutanedioate” (Exelixis, Inc., priority 2016, dated 2021).
Several values for one entry are separate records, joined by “and”; a condition that tells them apart may be missing. Identical values can stand only once.

System: advanced renal cell carcinoma (RCC)
Assay: METEOR (Study 1) randomized phase 3 trial, cabozantinib vs everolimus: PFS, OS, ORR
Format: in vivo, human
Conditions: for ORR (95% CI), IRC / ORR (95% CI), Investigator assessed / Progressive disease, IRC / Progressive disease, Investigator assessed / Stable disease, IRC / Stable disease, Investigator assessed / Confirmed ORR (95% CI), IRC / Confirmed ORR (95% CI), Investigator assessed / Confirmed responses (95% CI), IRC / Confirmed responses (95% CI), Investigator assessed: RECIST 1.1; for PFS event: all randomized
[1] = Patients With High Tumor Burden
[2] = Primary TWT analysis (first 375), cut-off May 2015, min follow-up 11 mo, 247 PFS events
[3] = Pts with Bone and Visceral Metastases
[4] = Supportive analysis, all events (all 658), cut-off May 2015, min follow-up 6 mo, 394 PFS events
[5] = Traditional analysis (all 658), cut-off November 2014, min follow-up 2 days, 247 PFS events
[6] = all 658 randomized, per IRC, cutoff May 22, 2015
[7] = earlier cutoff at 247 events in the ITT Pop (traditional design)
[8] = high tumor burden (≥median SoD)
[9] = patients with bone and visceral metastases
[10] = patients with visceral (lung or liver) metastases
[11] = pazopanib only prior VEGFR TKI subgroup
[12] = prior therapy subgroup Anti-PD-1/PD-L1
[13] = prior therapy subgroup Pazopanib Only
[14] = prior therapy subgroup Sunitinib Only
[15] = sunitinib only prior VEGFR TKI subgroup

COc1cc2nccc(Oc3ccc(NC(=O)C4(C(=O)Nc5ccc(F)cc5)CC4)cc3)c2cc1OC [cabozantinib]
Kaplan-Meier estimate of % of patients alive (6 Months landmark): 91% (87%, 93%) | Kaplan-Meier estimate of % of patients alive (12 Months landmark): 73% | Kaplan-Meier estimate of % of patients alive (12 Months landmark, listed as Cabozantinib): 73% (68%, 79%) | Kaplan-Meier estimate of % of patients alive (18 Months landmark): 58% | Kaplan-Meier estimate of % of patients alive (18 Months landmark, listed as Cabozantinib): 58% (53%, 64%) | Kaplan-Meier estimate of % of patients alive (24 Months landmark): 48% (39%, 55%) | OS HR, planned interim analysis, cabozantinib vs everolimus (49% information fraction, all 658 randomized, at time of primary PFS analysis): 0.67 | ORR (95% CI), IRC (Asia Pacific): 28 (15-45) % | ORR (95% CI), Investigator assessed (Asia Pacific): 36 (21-53) % | Progressive disease, IRC (Asia Pacific): 10% | Progressive disease, Investigator assessed (Asia Pacific): 0% | Stable disease, IRC (Asia Pacific): 62% | Stable disease, Investigator assessed (Asia Pacific): 64% | ORR (95% CI), IRC (Europe): 15 (10-21) % | ORR (95% CI), Investigator assessed (Europe): 22 (16-29) % | Progressive disease, IRC (Europe): 10% | Progressive disease, Investigator assessed (Europe): 8% | Stable disease, IRC (Europe): 69% | Stable disease, Investigator assessed (Europe): 65% | Median OS (ITT, all 658 randomized, cutoff Dec. 31, 2015): 21.4 months | Objective response rate (confirmed, partial responses only) per IRC (ITT, all 658 randomized, cutoff May 22, 2015): 17% | ORR (95% CI), IRC (North America): 16 (10-24) % | ORR (95% CI), Investigator assessed (North America): 20 (13-29) % | Progressive disease, IRC (North America): 17% | Progressive disease, Investigator assessed (North America): 13% | Stable disease, IRC (North America): 62% | Stable disease, Investigator assessed (North America): 62% | Confirmed ORR (95% CI), IRC [1]: 18 (12-24) % | Confirmed ORR (95% CI), Investigator assessed [1]: 21 (15-28) % | Progressive disease, IRC [1]: 8% | Progressive disease, Investigator assessed [1]: 7% | Stable disease, IRC [1]: 68% | Stable disease, Investigator assessed [1]: 67% | Confirmed ORR (95% CI), IRC (Patients With Low Tumor Burden): 17 (12-24) % | Confirmed ORR (95% CI), Investigator assessed (Patients With Low Tumor Burden): 27 (20-34) % | Progressive disease, IRC (Patients With Low Tumor Burden): 16% | Progressive disease, Investigator assessed (Patients With Low Tumor Burden): 10% | Stable disease, IRC (Patients With Low Tumor Burden): 62% | Stable disease, Investigator assessed (Patients With Low Tumor Burden): 59% | Median PFS [2]: 7.4 mo | PFS HR, cabozantinib vs everolimus [2]: 0.58 | Confirmed responses (95% CI), IRC (Pts with Bone Metastases): 17 (9-27) % | Confirmed responses (95% CI), Investigator assessed (Pts with Bone Metastases): 27 (18-39) % | Progressive disease, IRC (Pts with Bone Metastases): 13% | Progressive disease, Investigator assessed (Pts with Bone Metastases): 9% | Stable disease, IRC (Pts with Bone Metastases): 70% | Stable disease, Investigator assessed (Pts with Bone Metastases): 64% | Confirmed responses (95% CI), IRC [3]: 20 (11-32) % | Confirmed responses (95% CI), Investigator assessed [3]: 30 (19-43) % | Progressive disease, IRC [3]: 15% | Progressive disease, Investigator assessed [3]: 10% | Stable disease, IRC [3]: 65% | Stable disease, Investigator assessed [3]: 60% | Confirmed responses (95% CI), IRC (Pts without Bone Metastases): 17 (13-23) % | Confirmed responses (95% CI), Investigator assessed (Pts without Bone Metastases): 23 (18-28) % | Progressive disease, IRC (Pts without Bone Metastases): 12% | Progressive disease, Investigator assessed (Pts without Bone Metastases): 9% | Stable disease, IRC (Pts without Bone Metastases): 64% | Stable disease, Investigator assessed (Pts without Bone Metastases): 83% | Median PFS [4]: 7.4 mo | PFS HR, cabozantinib vs everolimus [4]: 0.51 | Median PFS [5]: 6 mo | PFS HR, cabozantinib vs everolimus [5]: 0.48 | Objective response rate per investigator (all 658 randomized, cutoff May 22, 2015): 24% | Median duration of PFS [6]: 7.4 months | PFS HR, cabozantinib vs everolimus [6]: 0.51 and 0.52 | Median duration of PFS (all 658 randomized, per IRC, cutoff May 22, 2015, listed as Cabozantinib): 7.4 (6.6-9.1) months and 7.4 months | PFS HR, cabozantinib vs everolimus (all 658 randomized, per investigator): 0.54 | Median duration of PFS (all 658 randomized, per investigator, cutoff May 22, 2015): 7.4 (7.3-7.8) months | PFS HR, cabozantinib vs everolimus (all 658 randomized, per investigator, listed as Cabozantinib): 0.54 (0.45-0.66) | PFS event (per IRC, cutoff May 22, 2015): 180 (55) ^ n (%) | PFS event (per investigator, cutoff May 22, 2015): 196 (59) ^ n (%) | Median PFS, alternative analysis [7]: 6 mo | PFS HR, alternative analysis [7]: 0.49 and 0.48 | Median PFS (first 375 randomized, per independent radiology review committee (IRC)): 7.4 months | Median OS (high MET tumor expression): 22.0 months | OS HR, cabozantinib vs everolimus (high MET tumor expression): 0.55 | Median OS (high tumor burden): 18.1 mo | OS HR, cabozantinib vs eve [8]: 0.60 | PFS HR, cabozantinib vs eve [8]: 0.41 | Patients with reduction in measurable tumor lesion size (in vivo): 75% | Median OS (low MET tumor expression): 20.8 months | OS HR, cabozantinib vs everolimus (low MET tumor expression): 0.72 | Median OS (low tumor burden): 22.0 mo | OS HR, cabozantinib vs eve (low tumor burden (<median SoD)): 0.76 | PFS HR, cabozantinib vs eve (low tumor burden (<median SoD)): 0.63 | Median OS (patients enrolled in Canada): 20.8 mo | Median PFS (patients enrolled in Canada): 7.4 mo | ORR (patients enrolled in Canada): 17% | OS HR, cabo vs eve (patients enrolled in Canada): 0.33 | PFS HR, cabo vs eve (patients enrolled in Canada): 0.40 | PFS HR, cabozantinib vs everolimus (patients with bone + visceral metastases): 0.26 | Median PFS [9]: 5.6 mo | ORR [9]: 20% | OS HR, cabozantinib vs everolimus [9]: 0.45 | Median PFS (patients with bone metastases): 7.4 mo | ORR (patients with bone metastases): 17% | OS HR, cabozantinib vs everolimus (patients with bone metastases): 0.54 | PFS HR, cabozantinib vs everolimus (patients with bone metastases at baseline): 0.33 | OS HR, cabozantinib vs eve [10]: 0.66 | PFS HR, cabozantinib vs eve [10]: 0.48 | OS HR, cabozantinib vs everolimus (pazopanib as only prior VEGFR TKI): 0.66 | Median OS [11]: 22.0 months | Median PFS [11]: 7.4 months | Best overall response: confirmed complete response (per IRC): 0 n | Best overall response: confirmed partial response (per IRC): 57 n | Best overall response: confirmed complete response (per investigator): 0 n | Confirmed ORR (95% CI), tumor response by IRC [12]: 22 (6-48) % | Confirmed ORR (95% CI), tumor response by investigator [12]: 22 (6-48) % | Progressive disease, tumor response by IRC [12]: 11% | Progressive disease, tumor response by investigator [12]: 11% | Stable disease, tumor response by IRC [12]: 50% | Stable disease, tumor response by investigator [12]: 56% | Confirmed ORR (95% CI), tumor response by IRC [13]: 19 (12-29) % | Confirmed ORR (95% CI), tumor response by investigator [13]: 31 (21-41) % | Progressive disease, tumor response by IRC [13]: 14% | Progressive disease, tumor response by investigator [13]: 3% | Stable disease, tumor response by IRC [13]: 65% | Stable disease, tumor response by investigator [13]: 64% | Confirmed ORR (95% CI), tumor response by IRC [14]: 16 (11-24) % | Confirmed ORR (95% CI), tumor response by investigator [14]: 23 (16-31) % | Progressive disease, tumor response by IRC [14]: 12% | Progressive disease, tumor response by investigator [14]: 11% | Stable disease, tumor response by IRC [14]: 66% | Stable disease, tumor response by investigator [14]: 60% | ORR (region Asia Pacific (AP)): 28% | OS HR, cabozantinib vs eve (region Asia Pacific (AP)): 0.49 | PFS HR, cabozantinib vs eve (region Asia Pacific (AP)): 0.43 | ORR (region Europe (EU)): 15% | OS HR, cabozantinib vs eve (region Europe (EU)): 0.67 | PFS HR, cabozantinib vs eve (region Europe (EU)): 0.54 | ORR (region North America (NA)): 16% | OS HR, cabozantinib vs eve (region North America (NA)): 0.79 | PFS HR, cabozantinib vs eve (region North America (NA)): 0.50 | Deaths (second interim analysis of OS, of randomized patients): 42% | OS HR, cabozantinib vs everolimus (sunitinib as only prior VEGFR TKI): 0.66 | Median OS [15]: 21.4 months | Median PFS [15]: 9.1 months
